According to publication PMC10644342, “Improved Antibacterial Activity of 1,3,4-Oxadiazole-Based Compounds That Restrict Staphylococcus aureus Growth Independent of LtaS Function” (ACS Infectious Diseases, 2023):
≈ marks a conversion by molar mass, not a printed value.

How the values were obtained:
[1] = tested on: S. aureus wild type, clpX, ltaS, tarO mutants and ltaS overexpression strains; assay: MIC against LtaS deletion and overexpression strains; type: cell-based, Staphylococcus aureus; conditions: Staphylococcus aureus, NEWMAN
Procedure: S. aureus, S. epidermidis, E. faecalis, and E. faecium strains were routinely cultivated on tryptic soy agar (TSA) and grown for 18 h at 37 °C. S. aureus single colonies were subsequently transferred into 2 mL of tryptic soy broth (TSB) and grown for a further 18 h at 37 °C while being shaken at 180 rpm. S. pyogenes, S. agalactiae, and S. dysgalactiae strains were routinely cultured on TSA supplemented with 5% sheep blood and grown for 18 h at 37 °C with 5% CO2. E. coli was grown in LB broth at 37 °C. For LtaS-deficient strains, TSB was supplemented with 0.5 M NaCl to provide an osmotically balanced environment and instead grown at 30 °C. For strains harboring the pRMC2 tetracycline inducible vector,[61] the growth medium was supplemented with 10 μg/mL chloramphenicol and […] anhydrotetracycline hydrochloride (Sigma). Phenylalanine-arginine β-naphthylamide (PAβN) (Sigma) was dissolved in sterile water.
B. subtilis, staphylococcal, and enterococcal strains were grown in Mueller Hinton broth (MHB), while streptococcal strains were grown in MHB supplemented with 5% laked horse blood. All strains were grown for 18 h at 37 °C. The overnight cultures were subsequently subcultured 1:200 and grown to the exponential phase (OD600nm = 0.5–0.6) in fresh broth. 1771 and its derivatives 9–14 were reconstituted in DMSO and further diluted by performing a 1:2 serial dilution ranging between 256 and 0.125 μg/mL in a 96-well microtiter plate. One hundred microliters of 0.5 McFarland standardized inoculum (approximately equal to 5 × 10^5 cfu) were then dispensed into each well in the 96-well microtiter plate. The plate was incubated for 18 h at 37 °C.
For overexpression studies, full-length ltaS was amplified by PCR using MRSA strian LAC genomic DNA, primer pair LtaS-FW: 5′-[…]-3′ and LtaS-RV: 5′-[…]-3′, and Phusion High-Fidelity DNA Polymerase (Thermo Fisher). The resulting PCR product was cloned into the tetracycline inducible plasmid pRMC2 using SacI and KpnI restriction sites and T4 ligase (NEB). The cloned vector was subsequently transformed into RN4220 followed by LAC through electroporation.

LtaS = tested on: LtaS; design: method as in PMID 29300473; conditions: LtaS in artificial liposomes; cited from earlier work
S. aureus = tested on: S. aureus; design: method as in PMID 23401520; conditions: cited from earlier work
HL-60 cell line = conditions: cited from earlier work

Structure (SMILES) | MIC [1] | MIC ([1]; Newman ΔtarO) | MIC ([1]; Newman ΔtarO pRMC2 (empty vector)) | MIC ([1]; Newman ΔtarO pltaS (ltaS overexpression)) | inhibition of LtaS polymerization activity (LtaS) | frequency of mutant selection (S. aureus) | Cell health index (CHI) (HL-60 cell line)
Nc1c(/N=N/c2ccc(-c3ccc(/N=N/c4cc(S(=O)(=O)O)c5ccccc5c4N)cc3)cc2)cc(S(=O)(=O)O)c2ccccc12 [Congo red] | > 512 µg/mL | 64 µg/mL (≈ 98.1 µM) | 64 µg/mL (≈ 98.1 µM) | 256 µg/mL (≈ 392 µM) | blocked LtaS function | – | –
[H]/N=C(/N)N[C@H]1[C@H](O)[C@@H](O)[C@H](O[C@@H]2O[C@@H](C)[C@](O)(C=O)[C@H]2O[C@@H]2O[C@@H](CO)[C@H](O)[C@@H](O)[C@@H]2NC)[C@@H](N/C(N)=N\[H])[C@@H]1O [streptomycin] | – | – | – | – | – | < 10^–7 | 0.19
